Assay results taken from patent US12097241B2, “Methods of treating kidney failure, and/or improving or stablizing renal function using modified relaxin polypeptides” (BRISTOL-MYERS SQUIBB COMPANY, priority 2017, dated 2024).
“Also recorded” adds a separate entry of the source. Marks after values point to notes of the source that are not given here. Square brackets hold non-standard residues; d marks the D form. Ends that are not written are not given here. Phe(4-Ac) = CC(=O)c1ccc(C[C@H](N)C(=O)O)cc1

Columns and labels:
[1] = Rat renal blood flow studies; type: in vivo, Sprague Dawley rats; conditions: 1 mg/kg intravenously; for % change in RBF over baseline: anesthetized male Sprague Dawley rats, renal blood flow recorded for 45 min
Method: Male Sprague Dawley rats (˜250-300 g) were anesthetized with sodium pentobarbital (50 mg/kg), the trachea was cannulated with PE-205 tubing to maintain airway patency, and temperature was maintained at 37° C. with a heated surgical plate. A 1.4 F pressure catheter (Millar Inc., Houston, TX) was advanced into the right carotid artery to measure aortic blood pressure. The right jugular vein was cannulated with PE-50 tubing for administration of test articles. The left kidney was exposed by a retroperitoneal incision, and a Doppler flow probe (Model 0.5 VB, Transonic System Inc., Ithaca, NY) was attached to the left renal artery to monitor blood flow. Sodium pentobarbital (15 mg/kg, intraperitoneal) was supplemented after completion of these surgical procedures. Following a 10-15 min equilibration, the relaxin was administered at 1 mg/kg intravenously in a dosing volume of 0.15 to 1.82 mL/kg over 30 seconds via an infusion pump (Harvard Apparatus, Holliston, MA). Blood pressure, heart rate and renal blood flow were continuously recorded for 45 min after relaxin administration using a Millar MPVS Ultra Signal Conditioning unit connected to a desktop computer running LabChart 7-Pro data acquisition software (ADInstruments, Dunedin, New Zealand) (Table 5). Table 5. Rat renal blood flow changes (abbreviations as in Table 3).

[2] = In vivo pharmacokinetic (PK) studies in rats; parameters: species or system Sprague-Dawley rats; conditions: rats, SC dose 1.0 mg/kg, adjusted from 0.2 mpk
Method in brief: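 Male Sprague-Dawley rats (n=3) given a single 1 mg/kg IV or SC dose of relaxin constructs in 20 mM histidine, 750 mM NaCl, pH 6.0; jugular serum sampled to 72 h. Serum relaxin by ELISA; Cmax, AUCinf, C24 and half-life from non-compartmental analysis of individual profiles.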

Row | Molecule | % change in RBF over baseline [1] | effect on renal blood flow (in words) ([1]; rats, 1 mg/kg) | death of animals after administration ([1]; rats, necropsy pale kidneys, 1 mg/kg) | Rat PK AUC Total [2] [µM·h] | level at time molar at 24 h ([2]; read-out: Rat PK C24) [nM] | effect on renal blood flow (in words) ([1]; rats)
1 | CCCCCCCCCCCCCC(=O)N[C@@H](CCC(=O)NCCOCCOCCOCCOCCOCCOCCOCCOCCOCCOCCOCCOCCOCCOCCOCCOCCOCCOCCOCCOCCOCCOCCOCCOCCOCCOCCOCCOCCOCCOCCOCCOCCOCCOCCOCCOCCC(=O)NCCO/N=C(\C)c1ccc(C[C@H](N)C(=O)N[C@@H](CC(C)C)C(=O)N[C@@H](Cc2ccc(O)cc2)C(=O)N[C@@H](CO)C(=O)N[C@@H](C)C(=O)N[C@@H](CC(C)C)C(=O)N[C@@H](C)C(=O)N[C@@H](CC(N)=O)C(=O)N[C@@H](CCCCN)C(=O)N[C@H]2CSSC[C@@H]3NC(=O)CNC(=O)[C@H](C(C)C)NC(=O)[C@H](Cc4c[nH]cn4)NC(=O)[C@H](CSSC[C@H](NC(=O)[C@H](CC(C)C)NC(=O)[C@H](CCCCN)NC(=O)[C@@H](NC(=O)[C@@H](NC(=O)[C@H](CCC(=O)O)NC(=O)[C@H](CCC(=O)O)NC(=O)[C@H](CCSC)NC(=O)[C@H](Cc4c[nH]c5ccccc45)NC(=O)[C@H](CO)NC(=O)[C@H](C)N)C(C)C)[C@@H](C)CC)C(=O)NCC(=O)N[C@@H](CCCNC(=N)N)C(=O)N[C@@H](CCC(=O)O)C(=O)N[C@@H](CC(C)C)C(=O)N[C@@H](C(C)C)C(=O)N[C@@H](CCCNC(=N)N)C(=O)N[C@@H](C)C(=O)N[C@@H](CCC(N)=O)C(=O)N[C@@H]([C@@H](C)CC)C(=O)N[C@@H](C)C(=O)N[C@@H]([C@@H](C)CC)C(=O)N[C@H](C(=O)NCC(=O)N[C@@H](CCSC)C(=O)N[C@@H](CO)C(=O)N[C@H](C(=O)N[C@@H](Cc4c[nH]c5ccccc45)C(=O)N[C@@H](CO)C(=O)O)[C@@H](C)O)CSSC[C@@H](C(=O)O)NC(=O)[C@H](Cc4ccccc4)NC(=O)[C@H](CCCNC(=N)N)NC(=O)[C@H](C)NC(=O)[C@H](CC(C)C)NC(=O)[C@H](CO)NC(=O)[C@H](CCCNC(=N)N)NC(=O)[C@H](CCCCN)NC(=O)[C@H]([C@@H](C)O)NC3=O)NC2=O)cc1)C(=O)O [AQ1-PEG36-Glu-C13-CH3] | +20^b % | increased renal blood flow; also recorded: good renal blood flow | – | – | – | –
2 | CCCCCCCCCCCCCC(=O)NCCO/N=C(\C)c1ccc(C[C@H](NC(=O)CNC(=O)[C@@H]2CSSC[C@@H](C(=O)O)NC(=O)[C@H](Cc3ccccc3)NC(=O)[C@H](CCCNC(=N)N)NC(=O)[C@H](C)NC(=O)[C@H](CC(C)C)NC(=O)[C@H](CO)NC(=O)[C@H](CCCNC(=N)N)NC(=O)[C@H](CCCCN)NC(=O)[C@H]([C@@H](C)O)NC(=O)[C@@H]3CSSC[C@H](NC(=O)[C@H](CCCCN)NC(=O)[C@H](CC(N)=O)NC(=O)[C@H](C)NC(=O)[C@H](CC(C)C)NC(=O)[C@H](C)NC(=O)[C@H](CO)NC(=O)[C@H](Cc4ccc(O)cc4)NC(=O)[C@H](CC(C)C)NC(=O)[C@@H](N)CC(N)=O)C(=O)N[C@@H](CSSC[C@H](NC(=O)[C@H](CC(C)C)NC(=O)[C@H](CCCCN)NC(=O)[C@@H](NC(=O)[C@@H](NC(=O)[C@H](CCC(=O)O)NC(=O)[C@H](CCC(=O)O)NC(=O)[C@H](CCSC)NC(=O)[C@H](Cc4c[nH]c5ccccc45)NC(=O)[C@H](CO)NC(=O)[C@H](C)N)C(C)C)[C@@H](C)CC)C(=O)NCC(=O)N[C@@H](CCCNC(=N)N)C(=O)N[C@@H](CCC(=O)O)C(=O)N[C@@H](CC(C)C)C(=O)N[C@@H](C(C)C)C(=O)N[C@@H](CCCNC(=N)N)C(=O)N[C@@H](C)C(=O)N[C@@H](CCC(N)=O)C(=O)N[C@@H]([C@@H](C)CC)C(=O)N[C@@H](C)C(=O)N[C@@H]([C@@H](C)CC)C(=O)N2)C(=O)N[C@@H](Cc2c[nH]cn2)C(=O)N[C@@H](C(C)C)C(=O)NCC(=O)N3)C(=O)N[C@@H](CO)C(=O)N[C@H](C(=O)N[C@@H](Cc2c[nH]c3ccccc23)C(=O)N[C@@H](CO)C(=O)O)[C@@H](C)O)cc1 [BM25/AN1-C13-CH3] | −100^a % | impaired renal blood flow; also recorded: decreased renal blood flow | fatal | – | – | –
3 | AQ1-20kDa PEG: AQ1 relaxin conjugated to PEG with an average MW of 20 kDa (chain 1 XLYSALANKCCHVGCTKRSLARFC; chain 2 ASWMEEVIKLCGRELVRAQIAICGMSTWS; non-natural residues) | +21% | – | – | 1.475 | 39 | increased renal blood flow
4 | BM25/AN1: human relaxin 2 with pAcF at B chain position 25 and asparagine at A chain position 1 (SEQ ID NO: 36, 37) (chain 1 NLYSALANKCCHVGCTKRSLARFC; chain 2 ASWMEEVIKLCGRELVRAQIAICG[Phe(4-Ac)]STWS; disulfide (positions not given here); ends not checked) | −20% | – | – | – | – | impaired renal blood flow
